Data taken from patent publication US20240124510A1, “Cyclic Glycoaminoacid Derivatives” (TFCHEM, priority 2021, published 2024).
Values joined by “and” are separate entries in the source; they are usually repeats but may differ in a detail not shown here. Equal entries are not always repeated. Where two headings read alike, the source gives them in different places.

Columns and labels:
[1] = tested on: normal human dermal fibroblasts (NHDF); assay: Protection of NHDF under UVA irradiation, MTT reduction assay; type: cell-based
Method: The protective effects of compound 6 was assessed in normal human dermal fibroblasts (NHDF). The viability of UVA-irradiated NHDF using a standard MTT reduction assay was tested. Prior to these assays, a preliminary cytotoxicity assay was performed on NHDF, using a standard WST-8 reduction assay and morphological observations with a microscope, in order to determine the concentrations to be tested.
• Cell type: NHDF, Bioalternatives reference PF2 used at the 8th passage • Culture conditions: 37° C., 5% CO2 • Culture medium: DMEM supplemented with L-glutamine 2 mM, Penicillin 50 U/ml • Streptomycin 50 μg/ml, Fetal calf serum (FCS) 10% • Irradiation medium: EBSS supplemented with CaCl2 0.2 g/l, MgSO4 0.2 g/l • Test compound: the compound 6 (MM=356.3 g/mol) was diluted in culture medium at final concentration of 1.25 and 2.5 mg/ml
Fibroblasts were seeded in 96-well plates and cultured in culture medium for 24 hours. The medium was then replaced by culture medium containing or not (irradiated control) the test compounds and the cells were pre-incubated for 24 hours. After pre-incubation, the medium was removed and replaced by irradiation medium and the cells were irradiated with 35 J/cm^2. The lamp used was a SOL500 Sun Simulator equipped with an H1 filter (Dr. Hönle, AG). After irradiation, the medium was removed and replaced by assay medium containing or not (irradiated control) the test compounds and the cells were incubated for 24 hours. A non-irradiated control condition was performed in parallel. All experimental conditions were performed in n=5, except for the control conditions in n=12.
At the end of incubation, the cells were incubated with MTT (tetrazolium salt) reduced in blue formazan crystals by succinate dehydrogenase (mitochondrial enzyme). This transformation is proportional to the enzyme activity. After cell dissociation and formazan crystal solubilization using DMSO, the optical density (OD) of the extracts at 540 nm, proportional to the number of living cells and their metabolic activity, was recorded with a microplate reader (VERSAmax, Molecular Devices).
Raw data were analyzed using Microsoft Excel© software. The inter-group comparisons were performed by an unpaired Student's t-test.
The standard error of the mean (sem) is a measure of how far the sample mean is likely to be from the true population mean. The sem is calculated as the standard deviation (sd) divided by the square root of sample size (n). Standard error of the mean: sem=sd/√n Percentage of viability: viability (%)=(OD sample/OD control)×100
The cell viability (OD 540 nm) from irradiated culture added with tested compound was compared with irradiated control culture and the percentage of viability was calculated.

procollagen I = assay: Procollagen I secretion in coculture of human aged fibroblasts and mature adipocytes (ELISA); type: cell-based; conditions: for secretion of Procollagen I, normalized by fibroblasts number, in percentage of the coculture control condition, Values: individual replicates
Description: In order to evaluate its effect on fibroblast matrix and its anti-inflammatory properties, the effect of compound 6 has been tested on an adipocytes-aged fibroblasts coculture model, mimicking the interactions between dermis and hypodermis in the skin and allowed to explore in parallel the biological effects of the products on two cellular targets.
• Experimental model: co-culture of human mature adipocytes cultured in 3D and human dermal fibroblasts cultured in 2D (AM3D-FB2D co-culture). This experimental model of AM3D-FB2D co-culture mimicked the interactions between dermis and hypodermis in the skin and allowed to explore in parallel the biological effects of the products on two cellular targets. • Donor characteristics: This study was performed on mature adipocytes and fibroblasts from two different donors (one donor for mature adipocytes and another donor for dermal fibroblasts). • Fibroblasts donor=person, BMI=28 kg/m^2 • Adipocytes donor=person, BMI=21.4 kg/m^2 • Treatment procedure: compound 6 was added to the co-culture medium daily for up to 6 days
Dermal fibroblasts were seeded in DMEM 10% FBS at 10000 cells/well. The day after, the adipocytes capsules of 50 μl were added in suspension above the fibroblasts and the medium was changed and replaced by a specific culture medium for the co-culture AM3D-FB2D. The formation of adipocytes capsules followed an internal standardized protocol. Briefly, the fully mature adipocytes were isolated from the hypodermis after digestion by collagenase. The isolated adipocytes were then washed with a wash buffer and encapsulated in a peptidic hydrogel to form 3D adipocytes capsules of 50 μl in size. Cells were incubated at 37° C. and 5% CO2 overnight for stabilization. Treatments were initiated at DO with a medium change at DO, D2, D3 and D5. The entire culture media of 24 h incubation was collected at D3 and D6, before being centrifugated and stored at −80° C. Each culture condition was done in triplicate.
The biochemical analyses on culture media were performed via ELISA using specific kits according to the manufacturer's recommendations: IL-6 (Duoset DY206, R&D Systems), and Hyaluronic Acid (HA) (Duoset, DY3614-05, R&D Systems and Procollagen I (Duoset, DY6220-05, R&D Systems) The results of HA and Procollagen I were normalized by fibroblasts cell number regarding the fact that these molecules were secreted mainly by fibroblasts. All the biochemical results were represented in percentage of the control condition.
To evaluate the effect of the compound 6 on fibroblasts' matrix, the extracellular concentrations of Procollagen I, that is secreted only by the fibroblasts, were measured at D3 and D6.

N[C@H]1CCCN(CC(F)(F)[C@]2(O)O[C@H](CO)[C@H](O)[C@H](O)[C@H]2O)C1=O [Compound 6]
Mean OD (540 nm) ([1]; 1.25 mg/ml, UVA 35 J/cm^2, MTT): 0.13 | Mean OD (540 nm) ([1]; 2.5 mg/ml, UVA 35 J/cm^2, MTT): 0.15 | viability at 1250 µg/mL ([1]; Homo sapiens, light or radiation study, 1.25 mg/ml, UVA 35 J/cm^2, MTT, read-out: % Irradiated control (viability)): 116% | viability at 2500 µg/mL ([1]; Homo sapiens, light or radiation study, 2.5 mg/ml, UVA 35 J/cm^2, MTT, read-out: % Irradiated control (viability)): 130% | viability at 2500 µg/mL ([1]; Homo sapiens, light or radiation study, UVA 35 J/cm2, 2.5 mg/ml, read-out: Cell viability, % of the irradiated control): 130% | secretion of Procollagen I, normalized by fibroblasts number, in percentage of the coculture control condition, Mean (procollagen I; D3, 1 mg/ml): 163% | secretion of Procollagen I, normalized by fibroblasts number, in percentage of the coculture control condition, Values (procollagen I; D3, 1 mg/ml): 162% and 158% and 168% | secretion of Procollagen I, normalized by fibroblasts number, in percentage of the coculture control condition, Mean (procollagen I; D3, 2 mg/ml): 159% | secretion of Procollagen I, normalized by fibroblasts number, in percentage of the coculture control condition, Values (procollagen I; D3, 2 mg/ml): 177% and 144% and 157% | secretion of Procollagen I, normalized by fibroblasts number, in percentage of the coculture control condition, Mean (procollagen I; D3, 3 mg/ml): 173% | secretion of Procollagen I, normalized by fibroblasts number, in percentage of the coculture control condition, Values (procollagen I; D3, 3 mg/ml): 202% and 78% and 238% | secretion of Procollagen I, normalized by fibroblasts number, in percentage of the coculture control condition, Mean (procollagen I; D6, 1 mg/ml): 418% | secretion of Procollagen I, normalized by fibroblasts number, in percentage of the coculture control condition, Values (procollagen I; D6, 1 mg/ml): 312% and 472% and 469% | secretion of Procollagen I, normalized by fibroblasts number, in percentage of the coculture control condition, Mean (procollagen I; D6, 2 mg/ml): 411% | secretion of Procollagen I, normalized by fibroblasts number, in percentage of the coculture control condition, Values (procollagen I; D6, 2 mg/ml): 284% and 488% and 460% | secretion of Procollagen I, normalized by fibroblasts number, in percentage of the coculture control condition, Mean (procollagen I; D6, 3 mg/ml): 474% | secretion of Procollagen I, normalized by fibroblasts number, in percentage of the coculture control condition, Values (procollagen I; D6, 3 mg/ml): 515% and 398% and 508%
